# Assay results reported in PubChem BioAssay (NCI).
#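 Five compound concentrations were applied to cells in 96-well plates for 48 hours; endpoints were derived by simple linear interpolation of the resulting dose-response curve. The concentration for full growth arrest is given as TGI.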
# What was measured:
# Test in all cases: growth of human tumour cells (NCI), 48 h
# SN12C renal = tested on: SN12C renal
# U251 CNS = tested on: U251 CNS
# IGROV1 ovarian = tested on: IGROV1 ovarian
# HS 578T breast = tested on: HS 578T breast
# MCF7 breast = tested on: MCF7 breast
# MOLT-4 leukemia = tested on: MOLT-4 leukemia
# MALME-3M melanoma = tested on: MALME-3M melanoma
# SF-539 CNS = tested on: SF-539 CNS
# SF-268 CNS = tested on: SF-268 CNS
# NCI-H522 lung = tested on: NCI-H522 lung
# UO-31 renal = tested on: UO-31 renal
# HCT-116 colon = tested on: HCT-116 colon
# CCRF-CEM leukemia = tested on: CCRF-CEM leukemia
# NCI/ADR-RES ovarian = tested on: NCI/ADR-RES ovarian
# HL-60(TB) leukemia = tested on: HL-60(TB) leukemia
# 786-0 renal = tested on: 786-0 renal
# SK-OV-3 ovarian = tested on: SK-OV-3 ovarian
# OVCAR-5 ovarian = tested on: OVCAR-5 ovarian
# ACHN renal = tested on: ACHN renal
# COLO 205 colon = tested on: COLO 205 colon
# OVCAR-3 ovarian = tested on: OVCAR-3 ovarian
# T-47D breast = tested on: T-47D breast
# MDA-MB-435 = tested on: MDA-MB-435
# UACC-257 melanoma = tested on: UACC-257 melanoma
# NCI-H23 lung = tested on: NCI-H23 lung
# PC-3 prostate = tested on: PC-3 prostate
# SNB-19 CNS = tested on: SNB-19 CNS
# A549 NSCLC = tested on: A549 NSCLC
# HOP-62 NSCLC = tested on: HOP-62 NSCLC
# RXF 393 renal = tested on: RXF 393 renal
# OVCAR-8 ovarian = tested on: OVCAR-8 ovarian
# SK-MEL-28 melanoma = tested on: SK-MEL-28 melanoma
# UACC-62 melanoma = tested on: UACC-62 melanoma
# BT-549 breast = tested on: BT-549 breast
# RPMI-8226 leukemia = tested on: RPMI-8226 leukemia
# HCC-2998 colon = tested on: HCC-2998 colon
# HCT-15 colon = tested on: HCT-15 colon
# SNB-75 CNS = tested on: SNB-75 CNS
# TK-10 renal = tested on: TK-10 renal
# EKVX NSCLC = tested on: EKVX NSCLC
# HT29 colon = tested on: HT29 colon
# NCI-H226 lung = tested on: NCI-H226 lung
# DU-145 prostate = tested on: DU-145 prostate
# M14 melanoma = tested on: M14 melanoma
# SF-295 CNS = tested on: SF-295 CNS
# KM12 colon = tested on: KM12 colon
# LOX IMVI melanoma = tested on: LOX IMVI melanoma
# A498 renal = tested on: A498 renal
# SK-MEL-5 melanoma = tested on: SK-MEL-5 melanoma
# OVCAR-4 ovarian = tested on: OVCAR-4 ovarian
# HOP-92 NSCLC = tested on: HOP-92 NSCLC
# SW-620 colon = tested on: SW-620 colon
# K-562 leukemia = tested on: K-562 leukemia
# SK-MEL-2 melanoma = tested on: SK-MEL-2 melanoma
# MDA-N = tested on: MDA-N
# CAKI-1 renal = tested on: CAKI-1 renal
structure (smiles),measurement,setting,value
CC(=O)c1cc2c(s1)C(=O)c1ccsc1C2=O,TGI,SN12C renal,0.352 µM
same,TGI,U251 CNS,0.785 µM
same,TGI,IGROV1 ovarian,3.4 µM
same,TGI,HS 578T breast,0.561 µM
same,TGI,MCF7 breast,1.68 µM
same,TGI,MOLT-4 leukemia,2.17 µM
same,TGI,MALME-3M melanoma,0.332 µM
same,TGI,SF-539 CNS,0.649 µM
same,TGI,SF-268 CNS,1.01 µM
same,TGI,NCI-H522 lung,0.486 µM
same,TGI,UO-31 renal,0.597 µM
same,TGI,HCT-116 colon,1.59 µM
same,TGI,CCRF-CEM leukemia,1.3 µM
same,TGI,NCI/ADR-RES ovarian,2.59 µM
same,TGI,HL-60(TB) leukemia,0.369 µM
same,TGI,786-0 renal,4.16 µM
same,TGI,SK-OV-3 ovarian,5.38 µM
same,TGI,OVCAR-5 ovarian,2.03 µM
same,TGI,ACHN renal,0.626 µM
same,TGI,COLO 205 colon,40.5 µM
same,TGI,OVCAR-3 ovarian,0.729 µM
same,TGI,T-47D breast,6.82 µM
same,TGI,MDA-MB-435,0.226 µM
same,TGI,UACC-257 melanoma,0.285 µM
same,TGI,NCI-H23 lung,0.337 µM
same,TGI,PC-3 prostate,1.15 µM
same,TGI,SNB-19 CNS,1.02 µM
same,TGI,A549 NSCLC,4.2 µM
same,TGI,HOP-62 NSCLC,0.916 µM
same,TGI,RXF 393 renal,0.683 µM
same,TGI,OVCAR-8 ovarian,1.59 µM
same,TGI,SK-MEL-28 melanoma,0.361 µM
same,TGI,UACC-62 melanoma,0.688 µM
same,TGI,BT-549 breast,0.356 µM
same,TGI,RPMI-8226 leukemia,49.7 µM
same,TGI,HCC-2998 colon,3.17 µM
same,TGI,HCT-15 colon,0.367 µM
same,TGI,SNB-75 CNS,0.367 µM
same,TGI,TK-10 renal,3.69 µM
same,TGI,EKVX NSCLC,3.24 µM
same,TGI,HT29 colon,4.19 µM
same,TGI,NCI-H226 lung,3.75 µM
same,TGI,DU-145 prostate,0.743 µM
same,TGI,M14 melanoma,1.2 µM
same,TGI,SF-295 CNS,0.307 µM
same,TGI,KM12 colon,3.11 µM
same,TGI,LOX IMVI melanoma,0.0782 µM
same,TGI,A498 renal,12.6 µM
same,TGI,SK-MEL-5 melanoma,0.262 µM
same,TGI,OVCAR-4 ovarian,2.56 µM
same,TGI,HOP-92 NSCLC,5.04 µM
same,TGI,SW-620 colon,0.37 µM
same,TGI,K-562 leukemia,3.57 µM
same,TGI,SK-MEL-2 melanoma,1.37 µM
same,TGI,MDA-N,0.197 µM
same,TGI,CAKI-1 renal,4.29 µM
